Measurements: patent EP0460488B1, “Sulfur-containing heterocyclic compounds” (Takeda Chemical Industries, Ltd., priority 1990, dated 1991)

system: bone resorption; assay: Study on bone resorption inhibition: 45Ca release from cultured rat fetal bones (method of Raisz); assay type: cell-based, Sprague-Dawley rat; details: description for DK (own example numbering); rat fetal bone culture, 2 days with test compound; mean of 5 bones; test concentration not given
Method: Bone resorption inhibitory activity was determined according to the method of Raisz [Journal of Clinical Investigation (J. Clin. Invest.) 44, 103-116 (1965)].
(§1) That is, a Sprague-Dawley rat at day 19 of pregnancy was subcutaneously dosed with 50 µCi of 45Ca (a radioisotope of calcium, in CaCl2). On the next day, the animal was laparotomized and the fetuses were removed aseptically. The right and left […] (radii and ulnae) of each rat fetus were dissected from the body under the dissection microscope. The connective tissue and cartilages were removed as far as possible to prepare bone culture specimens. Each piece of bone was incubated in 0.6 ml of BGJb medium (Fitton-Jackson modification [the tradename owned by GIBCO Laboratories, U.S.A.]) containing 2 mg/ml of bovine serum albumin at 37°C for 24 hours. Then, incubation was carried out for additional two days in the above-mentioned medium. The radioactivities of 45Ca in the culture medium and bone were determined and the ratio (%) of 45Ca released from the bone to the medium was calculated according to the following formula. A =(B)/(B + C)x 100 [formula] A = ratio (%) of ^45Ca released from the bone to the medium B = ^45Ca count in the medium C = ^45Ca count in the bone
The bones from the fetuses of the same litter were similarly incubated without addition of the test compound for two days and served as controls.
The values for 5 bones per group were expressed in mean. The ratio (%) of this value for the treatment group to the control value was determined.
as §1, with “of ^45Ca” for “of 45Ca”

Row | Compound | 45Ca release (% to control)
1 | COc1cc2c(cc1OC)C(=O)CSC(C(=O)Nc1nc(-c3ccccc3)cs1)C2 (centres unmarked) [compound 25] | 69 % to control
2 | O=C1CSC(C(=O)Nc2ccc(Cl)cc2)Cc2ccc(Cl)cc21 (centres unmarked) [compound 26] | 68 % to control
3 | Cc1ccc2c(c1)C(=O)CSC(C(=O)Nc1ccc(Cl)cc1)C2 (centres unmarked) [compound 28] | 61 % to control
4 | methyl trans-4,7-dimethyl-5-oxo-1,2,4,5-tetrahydro-3-benzothiepine-2-carboxylate [Reference Example 32] | 63 % to control

same assay, conditions: rat fetal bone culture, 2 days with test compound; mean of 5 bones; ratio of treatment group to control; test concentration not given

Row | Compound | ^45Ca release (% to control)
5 | COc1cc2c(cc1OC)C(=O)CSC(C(=O)Nc1nc(-c3ccccc3)cs1)C2 (centres unmarked) [Example 47] | 69 % to control
6 | O=C1CSC(C(=O)Nc2ccc(Cl)cc2)Cc2ccc(Cl)cc21 (centres unmarked) [Example 48] | 68 % to control
7 | Cc1ccc2c(c1)C(=O)CSC(C(=O)Nc1ccc(Cl)cc1)C2 (centres unmarked) [Example 50] | 61 % to control
8 | Cc1ccc2c(c1)C(=O)CSC(C(=O)N(C)Cc1ccccc1)C2 (centres unmarked) [Example 54] | 63 % to control
